Results reported in patent publication US7049334B2, “Enhancement of learning and memory and treatment of amnesia” (priority 2001, dated 2006).

Tests used:
[1] = system: Schaffer collateral-CA1 pathway of rat hippocampal slices; test: LTP induction in Schaffer collateral-CA1 pathway of hippocampal slices (fEPSP slope); format: cell-based, Wistar rats; details: fEPSP slope 60 min after weak tetanus (50 Hz, 0.5 s); 1.6 μM perfused 3 min before and 3 min after tetanus
[2] = system: hippocampal slices taken from young rats; test: Plasticity induced by low-frequency stimulation (LTD) in hippocampal slices; format: cell-based, Wistar rats; details: 0.02 Hz stimulation; alone
Procedure: After decapitation, brains of either adult ([…], for the induction of long-term potentiation) or young (2–3 weeks old, for the induction of long-term depression) Wistar rats were rapidly removed, and the hippocampus was dissected out. Transverse hippocampal slices (450 μm thickness) were immediately placed in an ice-cold cutting buffer containing 124 mM NaCl, 3 mM KCl, 1.0 mM Na2HPO4, 25 mM NaHCO3, 0.5 mM CaCl2, 5.0 mM MgSO4, 10 mM glucose, saturated with 95% O2 and 5% CO2. The slices were then maintained in an interface chamber at room temperature, and perfused at flow rate of 1–2 mL/min with artificial cerebrospinal fluid (ACSF). The composition of ACSF contained 124 mM NaCl, 4.4 mM KCl, 1.0 mM Na2HPO4, 25 mM NaHCO3, 2.0 mM or 2.5 mM CaCl2, 1.0 mM MgSO4, 10 mM glucose, gassed with 95% O2 and 5% CO2. The field Excitatory Postsynaptic Potentials (fEPSP) was evoked by test pulses through a bipolar stimulating electrode placed on the Schaffer collateral/commissural pathway, and recorded from the stratum radiatum of CA1 using a glass micropipette electrode (5–10 MΩ) filled with 2 M NaCl. The test pulse duration was 100 μsec, and test responses were elicited at 0.02 Hz. To record field potentials in the cortico-amygdala pathway, a stimulating electrode was placed in the external capsule, which contained fibers from the auditory cortex to the lateral amygdala. Bicuculine (10 μM) was present in the perfusion solution when the fEPSPs of amygdala were recorded. To increase the effectiveness of fused pyrazolyl compounds that were applied through the perfusion system, the ACSF level in the recording chamber was sufficiently high to cover the hippocampal slices but not to float them. All fused pyrazolyl compounds were perfused in ACSF.
Evoked fEPSPs were recorded and data were analyzed. The initial slope of the fEPSPs was calculated, and the data were expressed as percentages of the average of the base-line slope of the fEPSPs.
Compound 1 on plasticity induced by low-frequency stimulation (LFS): LFS (900 pulses at 1 Hz) was delivered to hippocampal slices taken from young rats ([…]) to induce long-term depression (LTD). Stimulation of hippocampal slices at 1 Hz for 3 min produced no LTD of synaptic transmission. However, this short-duration LFS induced significant LTD in the presence of Compound 1 (83.4±10.9%, n=3). […] A weaker electrical stimulation at 0.02 Hz was delivered in the presence of both nitric oxide donor nitroprusside ([…]) and Compound 1 (1.6 μM). Simultaneous perfusion of the nitric oxide donor nitroprusside (30 μM) and Compound 1 (1.6 μM) induced LTD.

[3] = system: rats (spatial memory); test: Morris water maze; format: in vivo; details: L-NAME intracerebroventricular (1 mmole/10 mL) 10 min before first trial of daily training
Procedure: Morris water maze: Morris water maze was performed in a circular pool (224 cm in diameter, 46 cm in height) located in a room with distinctive visual cues. Water was filled to a depth of 36 cm and a transparent plastic platform (25×25 cm, 32 cm in height) was located at the center of a fixed quadrant. Rats were trained for two days in the task environment: free-swimming in the pool without the transparent plastic platform. Each training session was 2 min and the rats were picked up from the pool by an experimenter. Then, rats received 4 consecutive daily training trials for the following six days. During each training trial, each rat was placed into the water randomly from one of the quadrants. The rat had to swim until it climbed onto the plastic platform submerged underneath the water. The time duration from being placed into the water to climbing onto the plastic platform was recorded and defined as escape latency. […] Each rat stayed on the platform for 60 s, which also served as the interval of trial. Compound 1 (1 mg/kg) or vehicle was daily injected to each rat 10 min before the first training trial. After the last training trial of each day, each rat was dried by a towel, and an electric heater was placed in its home cage.
Substantial evidence implicates the hippocampus in acquisition and retention of spatial information. See, e.g., Ohon et al. (1979) Behav. Brain Sci. 2: 316–365; and Barnes (1988) Trend Neurosci. 11: 163–169. The effect of Compound 1 on the acquisition of spatial memory in the Morris water maze was tested. Rats received 4 consecutive training trials every day. Compound 1 (1 mg/kg) was daily injected (i.p., 1 mg/kg) 10 min before the first trial of training. […] The escape latencies of 2˜4 trials were 93.8±8.7 s, 79.3±12/3 s and 57.6±12.5 s for a control group, and 50.4±10.2 s, 47.3±6.8 s and 30.3±10.3 for the Compound 1 group (n=10), respectively. The escape latencies of the first trial on the following 3 training days were also markedly shortened in the Compound 1 group. The escape latencies were 91.1±9.8 s, 47.1±3.9 s and 35.3±6.1 s for the control group, and 55.4±12.8 s, 15.3±2.1 s, and 13.4±1.7 s for the Compound 1 group (n=10), respectively. […] The escape latency is shorter in the Compound 1 group throughout the whole experimental period up to 21 days although Compound 1 was only administered […] for 4 days. The mean escape latency on the day-21 is 13.5±1.8 s and 6.0±0.5 s (n=10 each) for the control group and the Compound 1 group, respectively. From results shown above, Compound 1 is a promising drug for improving learning and memory. Compound 1 was mixed with 1.25% carboxymethylcellulose (CMC) and orally delivered to stomach (10 mg/kg) directly 30 min before the first trial for 6 successive days.
Since L-NAME antagonized Compound 1-induced LTP enhancement in hippocampal slices, in vivo experiments were performed to test the effect of L-NAME on the improved learning and memory provoked by Compound 1. In these experiments, rats chronically implanted with cannulae were injected intracerebroventrically with L-NAME (1 mmole/10 mL) or saline 10 min before the first trial of daily training, concomitant with i.p. injection of Compound 1 (1 mg/kg). […] Intracerebroventricular administration of KT 5823 also impaired the Compound 1-induced enhancement.

Row | Molecule | fEPSP [1] | also measured
1 | COc1ccc2c(-c3ccc(CO)o3)nn(Cc3ccccc3)c2c1 [Compound 5] | 180.8% | –
2 | COC(=O)c1ccc(-c2n[nH]c3ccccc23)o1 [Compound 8] | 180.6% | –
3 | OCc1ccc(-c2nn(Cc3ccccc3)c3cc4c(cc23)OCO4)o1 [Compound 6] | 260.3% | –
4 | OCc1ccc(-c2nn(Cc3ccccc3)c3cc(F)ccc23)o1 [Compound 3] | 218.9% | –
5 | nitroprusside [reference compound] | – | potentiation of fEPSP at 0.02 Hz stimulation, substance alone [2]: produced no potentiation
6 | COC(=O)[C@@H](N)CCCNC(=N)N[N+](=O)[O-] [L-NAME, N^G-nitro-L-arginine-methylester, reference compound] | – | effect of L-NAME on the task [3]: profound amnesia
7 | COC(=O)c1ccc(-c2nn(Cc3ccccc3)c3ccccc23)o1 [Compound 7] | 200.3% | –
8 | CNCc1ccc(-c2nn(Cc3ccccc3)c3ccccc23)o1 [Compound 2] | 165.9% | –
9 | COCc1ccc(-c2nn(Cc3ccccc3)c3ccccc23)o1 [Compound 4] | 216.9% | –
